Assay results from ChEMBL document CHEMBL6153028, “Understanding the synergistic sensitization of natural products and antibiotics: An effective strategy to combat MRSA” (2025).

How the values were obtained:
Type in all cases: functional
Staphylococcus aureus [1] = assay: Synergistic antimicrobial activity against methicillin resistant Staphylococcus aureus 43300 assessed as fractional inhibitory concentration index incubated for 24 hrs in presence of Oxacillin by checkerboard assay
Staphylococcus aureus [2] = assay: Synergistic antimicrobial activity against methicillin resistant Staphylococcus aureus assessed as fractional inhibitory concentration index incubated for 24 hrs in presence of Oxacillin by checkerboard assay
Staphylococcus aureus [3] = assay: Synergistic antimicrobial activity against methicillin resistant Staphylococcus aureus assessed as fractional inhibitory concentration index incubated for 24 hrs in presence of amikacin by checkerboard assay
Staphylococcus aureus [4] = assay: Synergistic antimicrobial activity against methicillin-resistant Staphylococcus aureus assessed as fractional inhibitory concentration index in presence of gentamicin by checkerboard assay
Staphylococcus aureus [5] = assay: Synergistic antibacterial activity against methicillin-resistant Staphylococcus aureus assessed as fractional inhibitory concentration index incubated for 24 hrs in presence of vancomycin by checkerboard assay
Staphylococcus aureus [6] = assay: Synergistic antimicrobial activity against methicillin-resistant Staphylococcus aureus assessed as fractional inhibitory concentration index incubated for 24 hrs in presence of ampicillin by checkerboard assay
Staphylococcus aureus [7] = assay: Synergistic antimicrobial activity against methicillin resistant Staphylococcus aureus assessed as fractional inhibitory concentration index incubated for 24 hrs in presence of sulbactam by checkerboard assay
Staphylococcus aureus [8] = assay: Synergistic antimicrobial activity against methicillin resistant Staphylococcus aureus assessed as fractional inhibitory concentration index incubated for 24 hrs in presence of oxytetracycline by checkerboard assay
Staphylococcus aureus [9] = assay: Synergistic antimicrobial activity against methicillin-resistant Staphylococcus aureus CCARM 3089 assessed as fractional inhibitory concentration index in presence of oxacillin incubated for 24 hrs by checkerboard assay
Staphylococcus aureus [10] = assay: Synergistic antibacterial activity against methicillin resistant Staphylococcus aureus assessed as fractional inhibitory concentration index in presence of norfloxacin; details: time 24 hrs
Staphylococcus aureus [11] = assay: Synergistic antimicrobial activity against methicillin resistant Staphylococcus aureus assessed as fractional inhibitory concentration index incubated for 24 hrs in presence of Fosfomycin by checkerboard assay
Staphylococcus aureus [12] = assay: Synergistic antibacterial activity against methicillin resistant Staphylococcus aureus assessed as fractional inhibitory concentration index in presence of oxacillin incubated for 24 hrs by checkerboard assay
Staphylococcus aureus [13] = assay: Synergistic antibacterial activity against methicillin resistant Staphylococcus aureus assessed as fractional inhibitory concentration index in presence of kanamycin incubated for 24 hrs by checkerboard assay
Staphylococcus aureus [14] = assay: Synergistic antimicrobial activity against methicillin resistant Staphylococcus aureus 43300 assessed as fractional inhibitory concentration index incubated for 24 hrs in presence of cefotaxime by checkerboard assay
Staphylococcus aureus [15] = assay: Synergistic antimicrobial activity against methicillin resistant Staphylococcus aureus 43300 assessed as fractional inhibitory concentration index incubated for 24 hrs in presence of imipenem by checkerboard assay
Staphylococcus aureus [16] = assay: Synergistic antimicrobial activity against methicillin resistant Staphylococcus aureus 43300 assessed as fractional inhibitory concentration index incubated for 24 hrs in presence of Cefuroxime by checkerboard assay
Staphylococcus aureus [17] = assay: Synergistic antibacterial activity against methicillin resistant Staphylococcus aureus assessed as fractional inhibitory concentration index in presence of ampicillin
Staphylococcus aureus [18] = assay: Synergistic antibacterial activity against methicillin resistant Staphylococcus aureus assessed as fractional inhibitory concentration index in presence of ciprofloxacin
Staphylococcus aureus [19] = assay: Synergistic antimicrobial activity against methicillin resistant Staphylococcus aureus 43300 assessed as fractional inhibitory concentration index incubated for 24 hrs in presence of Gentamicin by checkerboard assay
Staphylococcus aureus [20] = assay: Synergistic antibacterial activity against methicillin-resistant Staphylococcus aureus assessed as fractional inhibitory concentration index in presence of cefoxitin

Compound: COc1ccc2c(c[n+](C)c3c4cc5c(cc4ccc23)OCO5)c1OC.[Cl-] [CHELERYTHRINE CHLORIDE]
- fractional inhibitory concentration index (FICI) (Staphylococcus aureus [1]): 0.5

Compound: O=C/C=C/c1ccccc1 [CINNAMALDEHYDE]
- fractional inhibitory concentration index (FICI) (Staphylococcus aureus [2]): 0.25
- fractional inhibitory concentration index (FICI) (Staphylococcus aureus [3]): 0.19
- fractional inhibitory concentration index (FICI) (Staphylococcus aureus [4]): 0.37
- fractional inhibitory concentration index (FICI) (Staphylococcus aureus [5]): 0.25

Compound: C[C@H]1COC2=C1C(=O)C(=O)c1c2ccc2c1CCCC2(C)C [CRYPTOTANSHINONE]
- fractional inhibitory concentration index (FICI) (Staphylococcus aureus [2]): 0.312
- fractional inhibitory concentration index (FICI) (Staphylococcus aureus [5]): 0.37

Compound: O=C(O[C@@H]1Cc2c(O)cc(O)cc2O[C@@H]1c1cc(O)c(O)c(O)c1)c1cc(O)c(O)c(O)c1 [EPIGALOCATECHIN GALLATE]
- fractional inhibitory concentration index (FICI) (Staphylococcus aureus [6]): 0.19
- fractional inhibitory concentration index (FICI) (Staphylococcus aureus [7]): 0.19
- fractional inhibitory concentration index (FICI) (Staphylococcus aureus [8]): 0.288

Compound: O=C(O[C@@H]1O[C@@H]2COC(=O)c3cc(O)c(O)c(O)c3-c3c(cc(O)c(O)c3O)C(=O)O[C@H]2[C@H](OC(=O)c2cc(O)c(O)c(O)c2)[C@H]1OC(=O)c1cc(O)c(O)c(O)c1)c1cc(O)c(O)c(O)c1 [EUGENIIN]
- fractional inhibitory concentration index (FICI) (Staphylococcus aureus [9]): 0.395

Compound: O=c1c(-c2ccc(O)cc2)coc2cc(O)cc(O)c12 [GENISTEIN]
- fractional inhibitory concentration index (FICI) (Staphylococcus aureus [10]): 0.38

Compound: C=CCc1ccc(O)c(-c2ccc(O)c(CC=C)c2)c1 [HONOKIOL]
- fractional inhibitory concentration index (FICI) (Staphylococcus aureus [11]): <0.5
- fractional inhibitory concentration index (FICI) (Staphylococcus aureus [3]): <0.5

Compound: CC(C)=CCc1c(-c2ccc(O)cc2O)oc2c(CC=C(C)C)c(O)cc(O)c2c1=O [KUWANON C]
- fractional inhibitory concentration index (FICI) (Staphylococcus aureus [12]): 0.5
- fractional inhibitory concentration index (FICI) (Staphylococcus aureus [13]): 0.375

Compound: CC(C)=CCC/C(C)=C/Cc1cc(C2CC(=O)c3c(O)cc(O)cc3O2)c(O)cc1O (centres undefined) [KUWANON E]
- fractional inhibitory concentration index (FICI) (Staphylococcus aureus [13]): 0.5

Compound: C=CCc1ccc(O)c(-c2cc(CC=C)ccc2O)c1 [MAGNOLOL]
- fractional inhibitory concentration index (FICI) (Staphylococcus aureus [11]): <0.5

Compound: CC(C)=CCc1c(-c2ccc(O)cc2O)oc2c3c(cc(O)c2c1=O)OC(C)(C)C=C3 [MORUSIN]
- fractional inhibitory concentration index (FICI) (Staphylococcus aureus [12]): 0.375
- fractional inhibitory concentration index (FICI) (Staphylococcus aureus [13]): 0.5

Compound: O=C1C=CC(=O)c2ccccc21 [NAPHTHOQUINONE]
- fractional inhibitory concentration index (FICI) (Staphylococcus aureus [14]): 0.062
- fractional inhibitory concentration index (FICI) (Staphylococcus aureus [15]): 0.5
- fractional inhibitory concentration index (FICI) (Staphylococcus aureus [16]): 0.06

Compound: CC1(C)CC[C@]2(C(=O)O)CC[C@]3(C)C(=CC[C@@H]4[C@@]5(C)CC[C@H](O)C(C)(C)[C@@H]5CC[C@]43C)[C@@H]2C1 [OLEANOLIC_ACID]
- fractional inhibitory concentration index (FICI) (Staphylococcus aureus [2]): <0.5
- fractional inhibitory concentration index (FICI) (Staphylococcus aureus [17]): <0.5

Compound: Oc1cc(O)cc(/C=C/c2ccc(O)cc2O)c1 [OXYRESVERATROL]
- fractional inhibitory concentration index (FICI) (Staphylococcus aureus [18]): 0.37
- fractional inhibitory concentration index (FICI) (Staphylococcus aureus [5]): 0.37

Compound: O=C(/C=C/C=C/c1ccc2c(c1)OCO2)N1CCCCC1 [PIPERINE]
- fractional inhibitory concentration index (FICI) (Staphylococcus aureus [19]): 0.5

Compound: O=C(O)c1cc(O)c2c(c1)C(=O)c1cccc(O)c1C2=O [RHEIN]
- fractional inhibitory concentration index (FICI) (Staphylococcus aureus [2]): 0.37

Compound: CC(C)=CC[C@@H](O)C1=CC(=O)c2c(O)ccc(O)c2C1=O [SHIKONIN]
- fractional inhibitory concentration index (FICI) (Staphylococcus aureus [3]): 0.37
- fractional inhibitory concentration index (FICI) (Staphylococcus aureus [4]): 0.5
- fractional inhibitory concentration index (FICI) (Staphylococcus aureus [20]): 0.57

Compound: C[C@H]1[C@H](C)CC[C@]2(C(=O)O)CC[C@]3(C)C(=CC[C@@H]4[C@@]5(C)CC[C@H](O)C(C)(C)[C@@H]5CC[C@]43C)[C@H]12 [URSOLIC ACID]
- fractional inhibitory concentration index (FICI) (Staphylococcus aureus [2]): <0.5
- fractional inhibitory concentration index (FICI) (Staphylococcus aureus [17]): <0.5
